EP1611112B1, “ISOXAZOLE COMPOUNDS AS INHIBITORS OF HEAT SHOCK PROTEINS” (Vernalis (Cambridge) Limited, priority 2003, dated 2004)

What was measured:
yeast HSP90 = target: T1, yeast HSP90 (Saccharomyces cerevisiae, UniProt P02829); experiment: Malachite Green ATPase assay; assay type: biochemical; conditions: activity range
T1 construct: made in house; host or cells: E. coli
Source text: The intrinsic ATPase activity of HSP90 may be measured using yeast HSP90 as a model system. The assay, based on the use of malachite green for the measurement of inorganic phosphate, was used to test the HSP90 inhibitory activity of some of the compounds of the Examples herein.
Malachite Green ATPase Assay
Chemicals are of the highest purity commercially available and all aqueous solutions are made up in AR water. Because of the need to minimise contamination with inorganic phosphate, precautions should be taken with solutions and apparatus used in the assays. Glassware and pH meters are rinsed with double distilled or deionised water before use and, wherever possible, plastic ware should be used. Gloves are worn for all procedures. • (1) Greiner 384-well (Greiner 781101) or Costar 384-well flat-bottomed polystyrene multiwell plates (VWR). • (2) Assay buffer of (a) 100mM Tris-HCI, pH 7.4, (b) 150mM KCI, (c) 6mM MgCl2. Stored at room temperature. • (3) 0.0812% (w/v) malachite green (M 9636, Sigma Aldrich Ltd., Poole, UK). Stored at room temperature. • (4) 2.32% (w/v) polyvinyl alcohol USP (P 1097, Sigma Aldrich Ltd, Poole, UK) in boiling water (see Comment 1), allowed to cool, and stored at room temperature. • (5) 5.72% (w/v) ammonium molybdate in 6 M hydrochloric acid. Stored at room temperature. • (6) 34% (w/v) sodium citrate. Stored at room temperature. • (7) 100mM ATP, disodium salt, special quality (47699, Sigma Aldrich). Stored at -20°C. • (8) E. coli expressed yeast HSP90 protein, purified >95% (see, e.g., Panaretou et al., 1998) and stored in 50uL aliquots at -80°C.
• 1. Dilute test compounds to 500µM in AR water (DMSO concentration will be 2.5%). Transfer 2.5µl of these compounds directly from the daughter plate to the assay plate, giving a final assay concentration of 100µM. […] Column 1 in the assay plate contains no compound, as a negative control. An additional row with no compound is also used as a background. • 2. Prepare ATP by diluting 100mM stock to 925µM with assay buffer, and aliquot 5µl of diluted ATP to each well including controls (final assay concentration 370µM). • 3. Add 5µl of buffer to background row. • 4. Dilute enzyme preparation to 1.05µM with assay buffer, and aliquot 5µl into each compound well and to the negative control column. • 5. Collect the reagents to the bottom of the well, cover plate with plate seal and incubate overnight at 37degC. • 6. First thing in the morning prepare the Malachite Green Reagent. Add 2parts of Malachite Green Solution, 1 part of Polyvinyl Alcohol Solution, 1 part of Ammonium Molybdate Solution, and 2 parts of AR water. • 7. Invert to mix, and leave for approximately 1 hour until the colour turns from brown to golden yellow. • 8. Add 40µl of Malachite Green Reagent to each well, allow 5 mins for colour to develop. • 9. Add 5µl of Sodium Citrate Reagent to each well (see comment 2) • 10. Re-cover with plate seal and shake on plate shaker for at least 15 mins. • 11. Measure Absorbance at 620nm using a suitable plate reader (e.g. Victor, Perkin Elmer Life Sciences, Milton Keynes, UK). Under these conditions, the control absorbance is 0.9 to 1.4, and the background is 0.2-0.35 giving a signal to noise ratio of -12. The Z' factor calculated from data obtained using these conditions is between 0.6 and 0.9.
• (1) The polyvinyl alcohol dissolves in boiling water with difficulty and stirring for 2-3 h is required. • (2) The time interval between addition of the malachite green reagent and the sodium citrate should be kept as short as possible in order to reduce the non-enzymatic hydrolysis of ATP. Once the sodium citrate is added, the colour is stable for up to 4 h at room temperature. • (3) Compounds can be added to the assay plates using a Biomek FX Robot (Beckman Coulter). […]

human full-length HSP90 = target: T2, human full-length HSP90 (Homo sapiens, UniProt P08238); experiment: Fluorescence Polarisation Assay (displacement of fluorescein-labelled probe RBT0045864-FAM); assay type: binding
T2 construct: E. coli expressed human full-length HSP90 protein; made in house; host or cells: E. coli
Source text: A Fluorescence Polarization_assay was also employed for the evaluation of some of the compounds of the Examples:
Fluorescence polarization {also known as fluorescence anisotropy} measures the rotation of a fluorescing species in solution, where the larger molecule the more polarized the fluorescence emission.
When the fluorophore is excited with polarized light, the emitted light is also polarized. The molecular size is proportional to the polarization of the fluorescence emission.
Test compound is added to the assay plate, left to equilibrate and the anisotropy measured again. Any change in anisotropy is due to competitive binding of compound to HSP90, thereby releasing probe.
Stored at room temperature. • 3) BSA (bovine serum albumen) 10 mg/ml (New England Biolabs # B9001S) • 4) 20 mM probe in 100 % DMSO stock concentration. Stored in the dark at RT. Working concentration is 200 nM diluted in AR water and stored at 4 °C.
1) Add 100µl 1x buffer to wells 11A and 12A (=FP BLNK) 2) Prepare assay mix - all reagents are kept on ice with a lid on the bucket as the probe is light-sensitive.
This gives 2.5 mM {50x} stock cpd - assuming cpds 20 mM. • 4) Repeat for wells A2 to A10. Control in columns 11 and 12. • 5) Transfer 5 µl from row A to row B- not column 12. Mix well. • 6) Transfer 5 µl from row B to row C. […] Add 2 µl of 100mM standard cpd to wells B12 - H12 {is positive control } • 13)The Z' factor is calculated from zero controls and positive wells.

[1] = Fluorescence Polarisation Assay, activity range
[2] = table names no assay, parent examples tested in fluorescence polarization assay

T2 sequence (P08238 whole entry): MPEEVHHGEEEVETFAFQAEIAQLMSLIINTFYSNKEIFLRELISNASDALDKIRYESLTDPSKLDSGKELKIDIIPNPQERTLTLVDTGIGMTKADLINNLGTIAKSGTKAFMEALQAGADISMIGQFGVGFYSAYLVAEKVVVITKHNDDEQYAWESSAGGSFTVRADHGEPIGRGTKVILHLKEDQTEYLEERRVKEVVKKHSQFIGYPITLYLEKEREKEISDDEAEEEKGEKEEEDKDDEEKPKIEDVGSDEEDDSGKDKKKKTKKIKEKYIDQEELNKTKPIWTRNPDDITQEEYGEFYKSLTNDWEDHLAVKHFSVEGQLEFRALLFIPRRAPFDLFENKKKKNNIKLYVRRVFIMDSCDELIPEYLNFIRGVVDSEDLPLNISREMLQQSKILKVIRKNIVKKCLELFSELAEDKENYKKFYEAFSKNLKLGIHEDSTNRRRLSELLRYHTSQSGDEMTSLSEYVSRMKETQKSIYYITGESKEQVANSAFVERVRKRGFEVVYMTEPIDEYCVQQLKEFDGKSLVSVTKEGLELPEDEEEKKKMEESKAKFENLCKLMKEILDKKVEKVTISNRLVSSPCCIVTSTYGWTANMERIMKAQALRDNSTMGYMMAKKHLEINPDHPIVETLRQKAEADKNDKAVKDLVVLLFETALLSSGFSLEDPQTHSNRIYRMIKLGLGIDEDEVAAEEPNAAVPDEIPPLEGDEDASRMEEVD
T1 sequence (P02829 whole entry): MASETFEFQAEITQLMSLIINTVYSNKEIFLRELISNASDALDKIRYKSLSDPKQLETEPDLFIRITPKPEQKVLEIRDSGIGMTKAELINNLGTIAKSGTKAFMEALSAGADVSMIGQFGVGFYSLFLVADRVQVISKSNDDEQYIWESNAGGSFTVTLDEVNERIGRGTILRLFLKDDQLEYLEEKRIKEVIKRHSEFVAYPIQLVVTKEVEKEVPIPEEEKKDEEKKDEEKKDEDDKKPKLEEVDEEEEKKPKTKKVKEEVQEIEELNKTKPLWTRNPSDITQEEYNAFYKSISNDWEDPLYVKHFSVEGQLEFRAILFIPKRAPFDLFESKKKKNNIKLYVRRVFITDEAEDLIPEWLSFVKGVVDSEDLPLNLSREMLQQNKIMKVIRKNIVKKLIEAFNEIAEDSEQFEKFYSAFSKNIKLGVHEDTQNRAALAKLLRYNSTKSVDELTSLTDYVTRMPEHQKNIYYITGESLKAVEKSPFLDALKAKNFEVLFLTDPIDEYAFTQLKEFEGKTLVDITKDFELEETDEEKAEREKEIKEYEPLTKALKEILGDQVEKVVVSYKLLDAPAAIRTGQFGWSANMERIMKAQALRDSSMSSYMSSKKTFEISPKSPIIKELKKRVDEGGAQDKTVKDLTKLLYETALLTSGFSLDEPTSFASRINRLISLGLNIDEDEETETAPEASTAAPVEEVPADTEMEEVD

IC50 (human full-length HSP90; [1]) [µM]	IC50 (human full-length HSP90; [2]) [µM]	Structure (SMILES)	other results
< 10		CCNC(=O)c1noc(-c2cc(Cl)c(O)cc2O)c1-c1ccc(CNCc2ccoc2)cc1 [Example 41a]	
	< 10	CCNC(=O)c1noc(-c2cc(C(C)(C)C)c(O)cc2O)c1-c1ccc(OC)cc1 [Example 77f]	
	< 10	CC(C)NC(=O)c1noc(-c2cc(C(C)C)c(O)cc2O)c1-c1ccc(CN2CCOCC2)cc1 [Example 78s]	
	< 10	CCNC(=O)c1noc(-c2cc(C(C)C)c(O)cc2O)c1-c1ccc(CNCCN(CC)CC)cc1 [Example 78n]	
	< 10	CCNC(=O)c1noc(-c2cc(C(C)C)c(O)cc2O)c1-c1ccc(CN2CCNCC2)cc1 [Example 78p]	
	< 10	CCNC(=O)c1noc(-c2cc(C(C)C)c(O)cc2O)c1-c1ccc(CNCC(=O)NC(C)C)cc1 [Example 78ad]	
	< 10	CCNC(=O)c1noc(-c2cc(C(C)C)c(O)cc2O)c1-c1ccc(CNC2CCNCC2)cc1 [Example 78q]	
< 10		CCNC(=O)c1noc(-c2cc(Cl)c(O)cc2O)c1-c1ccccc1CN1CCOCC1 [Example 41m]	
	< 10	CCNC(=O)c1noc(-c2cc(C(C)(C)C)c(O)cc2O)c1-c1ccc(CN(CC)CC)cc1 [Example 77b]	
	< 10	CCNC(=O)c1onc(-c2cc(Cl)c(O)cc2O)c1-c1ccc(CN2CCOCC2)cc1 [Example 76C]	
< 10		CC(C)NC(=O)c1noc(-c2cc(Cl)c(O)cc2O)c1-c1ccc(CN2CCCCC2)cc1 [Example 41p]	
	< 10	CCNC(=O)c1noc(-c2cc(-c3ccc(F)cc3)c(O)cc2O)c1-c1ccc(CN2CCN(C)CC2)cc1 [Example 75q]	
	< 10	CC(C)NC(=O)c1noc(-c2cc(C(C)C)c(O)cc2O)c1-c1ccc(CNC2CCCC2)cc1 [Example 78y]	

More lines, now with the values behind:

Structure (SMILES)	IC50 (human full-length HSP90; [1]) [µM]	IC50 (human full-length HSP90; [2]) [µM]	other results
Cc1noc(-c2ccc(O)cc2O)c1-c1ccc2c(c1)OCCO2 [Example 5]			IC50 (yeast HSP90): > 50 µM
COc1ccc(-c2c(C)noc2-c2cc(C(=S)Nc3ccccc3)c(O)cc2O)cc1 [Example 18]			IC50 (yeast HSP90): > 50 µM
CCc1cc(-c2oncc2-c2ccc(OC)c(OC)c2)c(O)cc1O [Example 11]			IC50 (yeast HSP90): < 50 µM
Oc1cc(O)c(-c2oncc2-c2ccc(Br)cc2)cc1Cl [Example 12a]			IC50 (yeast HSP90): < 50 µM
COc1ccc(-c2c(C)noc2-c2cc(C=O)c(O)cc2O)cc1 [Example 17]			IC50 (yeast HSP90): > 50 µM
COc1ccc(-c2c(C)noc2-c2cc(-c3cccnc3)c(O)cc2O)cc1 [Example 12]			IC50 (yeast HSP90): > 50 µM
CCNC(=O)c1noc(-c2cc(Cl)c(O)cc2O)c1-c1ccc(CN2CCN(C)CC2)cc1 [Example 47]	< 10		
CCNC(=O)c1noc(-c2cc(Cl)c(O)cc2O)c1-c1ccc(CNCCS(C)(=O)=O)cc1 [Example 37]	< 10		
CCNC(=O)c1noc(-c2cc(Cl)c(O)cc2O)c1-c1cccc(C(C)N2CCOCC2)c1 (centres unmarked) [Example 44]	< 10		
CC(=O)Nc1cccc(-c2c(C)noc2-c2cc(Cl)c(O)cc2O)c1 [Example 30]	< 10		
CCNC(=O)c1noc(-c2cc(CCc3cccc(F)c3)c(O)cc2O)c1-c1ccc(CN2CCCCC2)cc1 [Example 75e]		< 10	
CCNC(=O)c1noc(-c2cc(C(C)(C)C)c(O)cc2O)c1-c1ccc(CN2CCOCC2)cc1 [Example 77a]		< 10	
CCNC(=O)c1noc(-c2cc(-c3ccccc3)c(O)cc2O)c1-c1ccc(F)cc1 [Example 67]	< 10		
CCNC(=O)c1noc(-c2cc(-c3ccc(F)cc3)c(O)cc2O)c1-c1ccc(CN2CCCCC2)cc1 [Example 72]	< 10		
CCNC(=O)c1noc(-c2cc(C(C)(C)C)c(O)cc2O)c1-c1ccc(CN2CCOCC2)cc1 [Example 77, 5-(5-tert-Butyl-2,4-dihydroxy-phenyl)-4-(4-morpholin-4-ylmethyl-phenyl)-isoxazole-3-carboxylic acid ethylamide]	< 10		
CCNC(=O)c1noc(-c2cc(-c3ccccc3C)c(O)cc2O)c1-c1ccc(CN(CC)CC)cc1 [Example 75t]		< 10	
COc1ccc(-c2c(C)noc2-c2cc(C#N)c(O)cc2O)cc1 [Example 12b]			IC50 (human full-length HSP90; Fluorescence Polarisation Assay, key in footnote of the table): < 10 µM

Structure (SMILES)	IC50 (human full-length HSP90; [1]) [µM]	IC50 (human full-length HSP90; [2]) [µM]	other results
CCNC(=O)c1noc(-c2cc(Cl)c(O)cc2O)c1-c1ccc2ccccc2c1 [Example 32]	< 10		
CCNC(=O)c1noc(-c2cc(Cl)c(O)cc2O)c1-c1ccc(CN2CCC(CCO)CC2)cc1 [Example 51]	< 10		
CCNC(=O)c1noc(-c2cc(Cl)c(O)cc2O)c1-c1cccnc1 [Example 34]	< 10		
CCNC(=O)c1noc(-c2cc(-c3ccccc3F)c(O)cc2O)c1-c1ccc(CN2CCOCC2)cc1 [Example 75f]		< 10	
CCNC(=O)c1noc(-c2cc(Cl)c(O)cc2O)c1-c1ccc(CN2CCC(O)CC2)cc1 [Example 53]	< 10		
CCNC(=O)c1noc(-c2cc(Cl)c(O)cc2O)c1-c1ccc(N2CCN(C)CC2)cc1 [Example 36]	< 10		
CCNC(=O)c1noc(-c2cc(Cl)c(O)cc2O)c1-c1cccc(N2CCN(C)CC2)c1 [Example 31, 5-(5-Chloro-2,4-dihydroxy-phenyl)-4-[3-(4-methyl-piperazin-1-yl)-phenyl]-isoxazole-3-carboxylic acid ethylamide]	< 10		
CCNC(=O)c1noc(-c2cc(CCc3cccc(F)c3)c(O)cc2O)c1-c1ccc(CN2CCOCC2)cc1 [Example 75]	< 10		
CCNC(=O)c1noc(-c2cc(-c3ccc(F)cc3)c(O)cc2O)c1-c1ccc(CN2CCOCC2)cc1 [Example 73]	< 10		
CCNC(=O)c1noc(-c2cc(Cl)c(O)cc2O)c1-c1ccc(CN2CCC(CO)CC2)cc1 [Example 50]	< 10		
CCNC(=O)c1noc(-c2cc(CC)c(O)cc2O)c1-c1ccc(CN2CCN(C)CC2)cc1 [Example 57]	< 10		
CCNCc1noc(-c2cc(Cl)c(O)cc2O)c1-c1ccc(OC)cc1 [Example 40]	< 10		
CCNC(=O)c1noc(-c2cc(-c3ccccc3)c(O)cc2O)c1-c1ccc(CN2CCCCC2)cc1 [Example 75b]		< 10	
CCNC(=O)c1noc(-c2cc(CC)c(O)cc2O)c1-c1ccc(CN2CCOCC2)cc1 [Example 55]	< 10		
CCNC(=O)c1noc(-c2cc(CCc3ccc(F)cc3)c(O)cc2O)c1-c1ccc(CN2CCOCC2)cc1 [Example 70]	< 10		
CCNC(=O)c1noc(-c2cc(-c3ccccc3)c(O)cc2O)c1-c1ccc(CN2CCOCC2)cc1 [Example 74]	< 10		
CCNC(=O)c1noc(-c2cc(Cl)c(O)cc2O)c1-c1ccc(CN2CCS(=O)(=O)CC2)cc1 [Example 38]	< 10		
